What was measured:
Type in all cases: in vivo, rat
Long Evans (LE) rats [1] = assay: Novel Place Recognition (NPR) spontaneous exploration task after head-only irradiation
Excerpt: (§1) Ten (10) week old Long Evans (LE) rats (Crl:LE, Strain Code: 006; Charles River) were divided randomly into three groups (n=16/group):
(§2) Controls (Con) received oral gavage (vehicle only) and sham radiation.
(§3) Radiation recipients with no drug (IRR) administered oral gavage (vehicle only) and 27 Gy head-only fractionated radiation.
(§4) Radiation recipients having administered drug (IRR+NSI-189) received the compound of formula (2) wherein R^1=amyl as the phosphate salt by oral gavage. Drug was administered at 30 mg/kg (amount based exclusive of phosphate) and 27 Gy head-only fractionated radiation administered as in the IRR group. Rats in this group were administered NSI-189 in sterile vehicle (normal saline) as a 1× solution (15 mg/ml) starting 24 hours after the final dose of radiation and daily thereafter for 30 days. Sterile gavage needles with protected tips were used and the drug administered for less than a minute. […]
(§5) Rats were subjected to cognitive testing using spontaneous exploration tasks outlined below 1 week after termination of oral gavage (5 weeks post irradiation) over the course of 3 weeks. […] All data were collected using Noldus Ethovision v8.5 and later hand scored by a technician blind to the treatment groups. […]

Long Evans (LE) rats [2] = assay: Novel Object Recognition (NOR) spontaneous exploration task after head-only irradiation
Excerpt: as §1, §2, §3, §4, §5

Long Evans (LE) rats [3] = assay: Object in Place (OiP) spontaneous exploration task after head-only irradiation
Excerpt: as §1, §2, §3, §4, §5

Long Evans (LE) rats [4] = assay: Temporal Order (TO) spontaneous exploration task after head-only irradiation
Excerpt: as §1, §2, §3, §4, §5

[5] = test system: proliferating (BrdU+) cells present in the hippocampal dentate gyrus; assay: Neurogenesis: BrdU and BrdU/NeuN immunohistochemical labeling after head-only irradiation; details: irradiated rats, 30 mg/kg oral, 30 days
Protocol: as §1
Radiation recipients having administered drug (IRR+NSI-189) received the compound of formula (2) wherein R^1=amyl as the phosphate salt by oral gavage. Drug was administered at 30 mg/kg (amount based exclusive of phosphate) and 27 Gy head-only fractionated radiation administered as in the IRR group. Rats in this group were administered NSI-189 in sterile vehicle (normal saline) as a 1× solution (15 mg/ml) starting 24 hours after the final dose of radiation and daily thereafter for 30 days. Sterile gavage needles with protected tips were used and the drug administered for less than a minute.
For IRR and IRR+NSI-189, rats were anesthetized [2.5% (vol/vol) isoflurane/oxygen], placed ventrally on the treatment table (X-RAD 320 irradiator; Precision X-Ray) without restraint, and positioned under a collimated (1.0 cm^2 diameter) beam for head-only radiation delivered at a dose rate of 1.0 Gy/min. Fractionation of 27 Gy was delivered over 3 separate doses of […] that were administered 48 hours apart. […]
Remaining animals that were not used for Golgi-Cox staining (n=12/group) were given a barbiturate overdose and were perfused/fixated using 4% paraformaldehyde and tissue removed. Tissue was analyzed by immunohistochemistry.

[6] = IRR lower than IRR+NSI-189 (P<0.05), 30 mg/kg oral, 30 days, 27 Gy

## CC(C)CCNc1ncccc1C(=O)N1CCN(Cc2ccccc2)CC1 [NSI-189]
Long Evans (LE) rats [1]; [6]
  NPR exploration ratio of IRR+NSI-189 compared with Con (statistics, in words): did not differ significantly from Con
Long Evans (LE) rats [1]; rats, 27 Gy head-only fractionated radiation, 30 mg/kg oral gavage daily for 30 days starting 24 hours after final radiation dose, tested 5 weeks post irradiation, 1 hour retention
  Exploration Ratio mean (NPR): mean = 60.69
Long Evans (LE) rats [2]; IRR lower than IRR+NSI-189 (P<0.01), 30 mg/kg oral, 30 days, 27 Gy
  NOR exploration ratio of IRR+NSI-189 compared with Con (statistics, in words): statistically indistinguishable
Long Evans (LE) rats [2]; rats, 27 Gy head-only fractionated radiation, 30 mg/kg oral gavage daily for 30 days, 5 min retention interval
  Exploration Ratio mean (NOR): mean = 71.28
Long Evans (LE) rats [3]; [6]
  OiP exploration ratio of IRR+NSI-189 compared with Con (statistics, in words): showed no significant differences
Long Evans (LE) rats [3]; rats, 27 Gy head-only fractionated radiation, 30 mg/kg oral gavage daily for 30 days
  Exploration Ratio mean (OiP): mean = 64.60
Long Evans (LE) rats [4]; 30 mg/kg oral, 30 days, 27 Gy
  TO exploration ratio of IRR+NSI-189 compared with Con (statistics, in words): did not differ statistically
Long Evans (LE) rats [4]; rats, 27 Gy head-only fractionated radiation, 30 mg/kg oral gavage daily for 30 days, object sets 3 hours apart, test after additional 1 hour
  Exploration Ratio mean (TO): mean = 67.95
[5]; dual immunohistochemical labeling
  yield of BrdU+/NeuN+ cells (mature neurons) in the hippocampal dentate gyrus: returned the yield of BrdU^+/NeuN^+ cells to pre-irradiation levels
[5]; radiation alone gave significant (P<0.05) reduction
  number of proliferating (BrdU+) cells in the hippocampal dentate gyrus: returned to pre-irradiation levels

Reference: patent US20180104240A1, “AMELIORATION OF RADIATION-INDUCED COGNITIVE DYSFUNCTION” (NEURALSTEM, INC., priority 2016, published 2018)
